Reference: publication PMC7956560, “New 3-Aryl-2-(2-thienyl)acrylonitriles with High Activity Against Hepatoma Cells” (International Journal of Molecular Sciences, 2021)

Key:
[1] = tested on: panel of 43 human protein kinases; assay: Enzymatic kinase panel screening; type: biochemical; settings: 10 µM compound
Method: (§1) The kinase inhibiting potency of compound 1a, 1b and 1c (10 µM) was screened in a cell-free kinase assay, which consisted of a custom panel of 43 human protein kinases for 1c (listed in Figure 5A), as well as a subpanel of six kinases for 1a and 1b (Figure 5B). The initial panel was chosen to screen the lead compound 1c based on the union of two strategies. A total of 29 kinases were selected based on the correlated results of three in silico target prediction methods including structure- as well as ligand-based techniques and 20 kinases because of their relevance for HCC (note that six kinases were part of both strategies).
(§2) The assay was performed by Eurofins KinaseProfilerTM service (Eurofins, France) and the determination of enzymatic activity was assessed as previously described. Additionally, an IC50 determination of compound 1c against the VEGFR-2 was performed with a concentration range of 0.003 to 30 µM.

HepG2 cells = assay: LDH release assay (unspecific cytotoxicity); type: cell-based, human; settings: HepG2, 0.5 and 10 µM, 12 or 24 h
Method: Unspecific cytotoxicity induced by treatment with 0.5 µM and 10 µM of 1a, 1b, 1c and sorafenib (LC Laboratories, Woburn, MA, USA) was determined by measuring the release of lactate dehydrogenase (LDH) from HepG2 cells into the supernatant after 12 and 24 h (Cytotoxicity Detection KitPLUS LDH, Roche Diagnostics GmbH, Mannheim, Germany). The supernatant of treated samples was collected, and adherent non-treated cells were lysed with 2% Triton X-100 for 10 min to determine the maximum LDH release. All samples were mixed with catalyst and dye solution for 30 min, resulting in the formation of formazan dye proportional to LDH enzyme activity. The absorbance was measured at 490/630 nm using an ELISA reader (Dynex Technologies, Denkendorf, Germany) and cytotoxicity was determined by subtracting the percentage of LDH release under control conditions of those from treated samples. Experiments were performed in duplicate and data are given as mean percentage changes ± SD as compared to controls of n = 3 experiments.

[2] = tested on: non-malignant murine AML-12 hepatocytes; assay: Growth inhibition, crystal violet staining, AML-12; type: cell-based
Method: (§3) The well-differentiated p53 wild-type human hepatoblastoma cell line HepG2 (ATCC# 8065) and the highly differentiated p53 mutated human hepatocellular carcinoma cell line Huh-7 (JCRB#0403) were grown in RPMI 1640 medium supplemented with 10% fetal bovine serum and 100 U/mL penicillin and […] streptomycin. Murine AML-12 hepatocytes were obtained from ATCC (CRL-2254) and grown in DMEM/F-12 Glutamax medium supplemented with 10% fetal bovine serum, 10 µg/mL insulin, 5.5 µg/mL transferrin, 5 ng/mL selenium (Gibco ITS-G 100X) and 40 ng/mL dexamethasone (Sigma-Aldrich). All cell lines were incubated in a 37 °C, 5% CO2, 95% humidified atmosphere.
(§4) Treatment-induced changes in cell number were evaluated by crystal violet staining, as previously described. Briefly, 1.500 cells per well were seeded in 96-well plates for 24 h at 37 °C, 5% CO2. For the experiments with HepG2 and Huh-7 cell lines, cells were incubated with rising concentrations (0–20 µM) of the new compounds (1a–1o) for 48 h. AML12-cells were treated with compounds 1a, 1b, 1c, 1e, 1i and 1j for 48 h and at concentrations ranging from 0.5–64 µM. Thereafter, the cells were fixed with 1% glutaraldehyde and stained with 0.1% crystal violet (Sigma-Aldrich). The unbound dye was removed by rinsing with water. Bound crystal violet was solubilized with 0.2% Triton X-100 (Sigma-Aldrich). Light extinction of crystal violet, which increases linearly with cell number, was analyzed at 570 nm using an ELISA-Reader (Dynex Technologies, Denkendorf, Germany). All experiments were carried out in duplicate or triplicate.

human Huh-7 HCC cells = assay: Growth inhibition, crystal violet staining, Huh-7; type: cell-based; settings: 48 h incubation, mean ± SD, read-out: Anti-proliferative activity IC50, Huh-7
Method: as §3, §4

FGFR = assay: Enzymatic kinase assay (Eurofins KinaseProfiler); type: biochemical, human; settings: 10 µM compound, cell-free
Method: as §1, §2

PDGFR = assay: Enzymatic kinase assay (Eurofins KinaseProfiler); type: biochemical, human; settings: 10 µM compound, cell-free
Method: as §1, §2

VEGFR-1 = biological target: T1, VEGFR-1 (Homo sapiens, UniProt P17948); assay: Enzymatic kinase assay (Eurofins KinaseProfiler); type: biochemical; settings: 10 µM compound, cell-free
T1 construct: purchased Eurofins KinaseProfiler service (Eurofins, France)
Method: as §1, §2

VEGFR-2 (KDR) = biological target: T2, VEGFR-2 (KDR) (Homo sapiens, UniProt P35968); assay: Enzymatic kinase assay (Eurofins KinaseProfiler); type: biochemical
T2 construct: purchased Eurofins KinaseProfiler service (Eurofins, France)
T2 sequence (P35968 20-1356): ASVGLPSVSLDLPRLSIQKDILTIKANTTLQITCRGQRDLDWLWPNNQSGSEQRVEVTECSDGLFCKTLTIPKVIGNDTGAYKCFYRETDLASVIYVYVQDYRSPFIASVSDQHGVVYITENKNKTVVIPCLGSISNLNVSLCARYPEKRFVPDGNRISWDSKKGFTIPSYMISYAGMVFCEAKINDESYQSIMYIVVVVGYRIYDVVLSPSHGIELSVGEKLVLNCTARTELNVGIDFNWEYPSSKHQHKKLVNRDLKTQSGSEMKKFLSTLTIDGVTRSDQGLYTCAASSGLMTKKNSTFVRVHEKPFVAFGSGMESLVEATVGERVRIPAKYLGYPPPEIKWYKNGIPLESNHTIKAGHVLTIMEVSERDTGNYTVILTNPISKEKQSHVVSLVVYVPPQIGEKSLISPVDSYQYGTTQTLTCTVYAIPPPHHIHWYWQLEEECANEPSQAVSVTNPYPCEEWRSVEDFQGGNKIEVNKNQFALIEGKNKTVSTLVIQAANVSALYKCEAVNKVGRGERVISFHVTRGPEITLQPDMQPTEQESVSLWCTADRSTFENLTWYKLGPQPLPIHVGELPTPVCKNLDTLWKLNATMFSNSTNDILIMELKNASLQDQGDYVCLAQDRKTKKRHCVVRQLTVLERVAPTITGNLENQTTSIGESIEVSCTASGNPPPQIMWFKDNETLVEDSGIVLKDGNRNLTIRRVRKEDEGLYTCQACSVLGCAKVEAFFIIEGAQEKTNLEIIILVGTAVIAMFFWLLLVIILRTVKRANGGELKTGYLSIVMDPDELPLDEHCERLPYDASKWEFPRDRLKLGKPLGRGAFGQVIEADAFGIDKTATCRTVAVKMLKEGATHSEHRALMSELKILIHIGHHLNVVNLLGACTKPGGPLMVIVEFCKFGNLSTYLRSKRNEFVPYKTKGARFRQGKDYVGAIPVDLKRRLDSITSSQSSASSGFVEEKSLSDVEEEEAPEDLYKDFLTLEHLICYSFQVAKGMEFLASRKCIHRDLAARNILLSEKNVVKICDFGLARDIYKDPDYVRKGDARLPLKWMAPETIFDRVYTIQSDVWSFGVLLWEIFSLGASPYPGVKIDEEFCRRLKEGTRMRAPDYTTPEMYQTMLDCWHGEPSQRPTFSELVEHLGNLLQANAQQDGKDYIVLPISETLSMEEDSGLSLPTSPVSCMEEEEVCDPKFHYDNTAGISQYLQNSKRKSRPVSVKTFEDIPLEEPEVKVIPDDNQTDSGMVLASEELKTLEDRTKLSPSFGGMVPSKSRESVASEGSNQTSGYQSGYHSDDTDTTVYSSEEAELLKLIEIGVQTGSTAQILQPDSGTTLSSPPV
Method: as §1, §2

Pim-2 = biological target: T3, Pim-2 (Homo sapiens, UniProt Q9P1W9); assay: Enzymatic kinase assay (Eurofins KinaseProfiler); type: biochemical; settings: 10 µM compound, cell-free
T3 construct: purchased Eurofins KinaseProfiler service (Eurofins, France)
T3 sequence (Q9P1W9 whole entry): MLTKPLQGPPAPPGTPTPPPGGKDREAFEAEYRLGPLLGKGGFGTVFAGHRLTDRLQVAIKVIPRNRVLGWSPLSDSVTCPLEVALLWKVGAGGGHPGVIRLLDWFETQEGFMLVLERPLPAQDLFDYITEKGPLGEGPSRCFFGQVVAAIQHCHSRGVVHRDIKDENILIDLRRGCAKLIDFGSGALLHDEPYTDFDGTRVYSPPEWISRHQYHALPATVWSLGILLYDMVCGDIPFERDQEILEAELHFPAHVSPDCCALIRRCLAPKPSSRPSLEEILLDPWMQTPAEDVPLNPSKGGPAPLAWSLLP
Method: as §1, §2

EGFR = biological target: T4, EGFR (Homo sapiens, UniProt P00533); assay: Enzymatic kinase assay (Eurofins KinaseProfiler); type: biochemical; settings: 10 µM compound, cell-free
T4 construct: purchased Eurofins KinaseProfiler service (Eurofins, France)
T4 sequence (P00533 25-1210): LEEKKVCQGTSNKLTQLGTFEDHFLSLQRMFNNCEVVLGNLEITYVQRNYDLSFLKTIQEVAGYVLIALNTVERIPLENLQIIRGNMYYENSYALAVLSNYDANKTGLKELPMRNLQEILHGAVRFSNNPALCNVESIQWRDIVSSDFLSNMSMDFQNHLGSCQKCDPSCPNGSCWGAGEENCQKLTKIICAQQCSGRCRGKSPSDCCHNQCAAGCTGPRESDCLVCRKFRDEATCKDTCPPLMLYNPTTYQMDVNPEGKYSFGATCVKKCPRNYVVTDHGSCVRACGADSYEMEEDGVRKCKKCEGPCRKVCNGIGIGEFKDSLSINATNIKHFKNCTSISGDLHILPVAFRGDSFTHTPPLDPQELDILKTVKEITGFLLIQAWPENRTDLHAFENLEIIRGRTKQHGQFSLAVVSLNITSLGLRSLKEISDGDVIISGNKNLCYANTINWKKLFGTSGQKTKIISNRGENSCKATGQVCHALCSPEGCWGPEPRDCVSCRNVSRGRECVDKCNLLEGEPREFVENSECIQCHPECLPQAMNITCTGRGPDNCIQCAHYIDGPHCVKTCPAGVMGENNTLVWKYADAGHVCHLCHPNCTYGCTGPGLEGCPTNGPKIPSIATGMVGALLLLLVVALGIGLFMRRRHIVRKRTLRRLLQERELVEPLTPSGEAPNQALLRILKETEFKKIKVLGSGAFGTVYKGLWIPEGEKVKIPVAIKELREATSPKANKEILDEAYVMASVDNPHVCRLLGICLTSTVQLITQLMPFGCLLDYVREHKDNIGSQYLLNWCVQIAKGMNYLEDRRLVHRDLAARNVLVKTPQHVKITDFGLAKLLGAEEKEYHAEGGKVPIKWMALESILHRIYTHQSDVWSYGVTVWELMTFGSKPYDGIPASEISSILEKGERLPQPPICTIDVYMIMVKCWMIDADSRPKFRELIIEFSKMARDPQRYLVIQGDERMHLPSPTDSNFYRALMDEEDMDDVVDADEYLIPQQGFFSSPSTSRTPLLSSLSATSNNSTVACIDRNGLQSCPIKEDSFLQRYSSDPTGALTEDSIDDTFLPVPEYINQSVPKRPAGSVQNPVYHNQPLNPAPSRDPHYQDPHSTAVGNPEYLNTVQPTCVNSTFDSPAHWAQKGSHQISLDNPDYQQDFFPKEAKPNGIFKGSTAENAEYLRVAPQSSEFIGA
Method: as §1, §2

CLK1 = biological target: T5, CLK1 (Homo sapiens, UniProt P49759); assay: Enzymatic kinase assay (Eurofins KinaseProfiler); type: biochemical; settings: 10 µM compound, cell-free
T5 construct: purchased Eurofins KinaseProfiler service (Eurofins, France)
T5 sequence (P49759 whole entry): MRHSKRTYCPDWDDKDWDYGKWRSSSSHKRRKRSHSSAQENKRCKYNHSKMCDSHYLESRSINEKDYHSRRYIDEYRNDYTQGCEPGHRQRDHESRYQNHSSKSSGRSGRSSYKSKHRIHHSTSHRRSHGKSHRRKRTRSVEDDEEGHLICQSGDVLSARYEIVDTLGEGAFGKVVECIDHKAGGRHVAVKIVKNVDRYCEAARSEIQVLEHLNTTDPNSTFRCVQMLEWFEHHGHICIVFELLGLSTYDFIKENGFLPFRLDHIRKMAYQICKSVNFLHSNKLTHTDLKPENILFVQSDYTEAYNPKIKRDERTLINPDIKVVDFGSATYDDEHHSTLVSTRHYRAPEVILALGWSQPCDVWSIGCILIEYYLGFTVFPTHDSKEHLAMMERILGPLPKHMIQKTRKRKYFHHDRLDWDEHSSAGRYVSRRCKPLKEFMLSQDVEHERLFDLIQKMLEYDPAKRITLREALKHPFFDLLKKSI
Method: as §1, §2

c-KIT = biological target: T6, c-KIT (Homo sapiens, UniProt P10721); assay: Enzymatic kinase assay (Eurofins KinaseProfiler); type: biochemical; settings: 10 µM compound, cell-free
T6 construct: purchased Eurofins KinaseProfiler service (Eurofins, France)
Method: as §1, §2

IGF-1R = biological target: T7, IGF-1R (Homo sapiens, UniProt P08069); assay: Enzymatic kinase assay (Eurofins KinaseProfiler); type: biochemical; settings: 10 µM compound, cell-free
T7 construct: purchased Eurofins KinaseProfiler service (Eurofins, France)
T7 sequence (P08069 31-1367): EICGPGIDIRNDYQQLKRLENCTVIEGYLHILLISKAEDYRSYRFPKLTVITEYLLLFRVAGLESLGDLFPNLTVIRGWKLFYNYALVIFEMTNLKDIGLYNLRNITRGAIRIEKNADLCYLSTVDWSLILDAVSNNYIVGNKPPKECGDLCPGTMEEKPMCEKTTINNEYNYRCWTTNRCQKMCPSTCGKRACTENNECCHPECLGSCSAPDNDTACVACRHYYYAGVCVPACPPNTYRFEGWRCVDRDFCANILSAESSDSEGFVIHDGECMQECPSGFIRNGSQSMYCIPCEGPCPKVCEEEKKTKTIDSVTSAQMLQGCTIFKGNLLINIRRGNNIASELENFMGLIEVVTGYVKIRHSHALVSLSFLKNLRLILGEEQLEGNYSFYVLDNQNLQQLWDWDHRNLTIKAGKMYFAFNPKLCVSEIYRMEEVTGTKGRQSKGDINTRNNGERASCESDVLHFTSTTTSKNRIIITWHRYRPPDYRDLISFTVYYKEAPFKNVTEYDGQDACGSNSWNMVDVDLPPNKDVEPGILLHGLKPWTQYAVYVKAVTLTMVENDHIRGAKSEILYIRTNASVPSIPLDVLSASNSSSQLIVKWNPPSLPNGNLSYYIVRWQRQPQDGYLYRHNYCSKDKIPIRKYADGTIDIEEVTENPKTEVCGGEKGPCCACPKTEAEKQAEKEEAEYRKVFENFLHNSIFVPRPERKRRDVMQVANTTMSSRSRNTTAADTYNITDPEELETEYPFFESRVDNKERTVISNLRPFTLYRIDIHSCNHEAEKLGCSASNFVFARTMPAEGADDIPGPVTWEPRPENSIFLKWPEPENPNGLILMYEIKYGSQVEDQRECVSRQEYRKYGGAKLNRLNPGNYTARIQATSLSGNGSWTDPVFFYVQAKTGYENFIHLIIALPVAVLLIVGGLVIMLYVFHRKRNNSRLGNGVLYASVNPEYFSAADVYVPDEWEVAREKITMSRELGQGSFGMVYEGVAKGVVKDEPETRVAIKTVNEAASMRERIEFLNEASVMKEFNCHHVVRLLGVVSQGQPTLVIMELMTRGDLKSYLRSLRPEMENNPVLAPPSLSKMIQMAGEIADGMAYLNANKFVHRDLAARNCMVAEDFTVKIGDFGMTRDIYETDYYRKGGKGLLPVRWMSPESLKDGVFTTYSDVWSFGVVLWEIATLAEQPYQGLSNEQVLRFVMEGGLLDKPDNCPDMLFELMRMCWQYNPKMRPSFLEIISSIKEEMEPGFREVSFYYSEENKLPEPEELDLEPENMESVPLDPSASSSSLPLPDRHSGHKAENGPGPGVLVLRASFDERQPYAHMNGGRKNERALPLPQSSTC
Method: as §1, §2

Pim-1 = biological target: T8, Pim-1 (Homo sapiens, UniProt P11309); assay: Enzymatic kinase assay (Eurofins KinaseProfiler); type: biochemical; settings: 10 µM compound, cell-free
T8 construct: purchased Eurofins KinaseProfiler service (Eurofins, France)
T8 sequence (P11309 whole entry): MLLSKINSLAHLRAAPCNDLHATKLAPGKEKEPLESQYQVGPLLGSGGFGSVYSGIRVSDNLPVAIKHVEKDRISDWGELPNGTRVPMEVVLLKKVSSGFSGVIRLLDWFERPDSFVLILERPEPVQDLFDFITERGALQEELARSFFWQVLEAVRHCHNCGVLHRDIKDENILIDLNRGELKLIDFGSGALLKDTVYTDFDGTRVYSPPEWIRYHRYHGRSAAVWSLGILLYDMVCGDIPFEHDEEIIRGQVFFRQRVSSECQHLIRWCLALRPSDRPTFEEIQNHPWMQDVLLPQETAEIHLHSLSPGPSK
Method: as §1, §2

[3] = tested on: HepG2-tumors grown on membranes of fertilized chicken eggs; assay: Chorioallantoic membrane (CAM) assay; type: in vivo
Method: The chorioallantoic membrane (CAM) assay was performed as described previously. Fertilized chicken eggs (Gallus gallus) were obtained from commercial sources (Valo GmbH, Germany) and incubated in a humid environment at 38 °C. On day 3 of the egg development, a window was cut in the eggshell to access the developing vascular network of the CAM. At day 10 of chicken embryo development, a sterile silicon ring (10 mm diameter) was placed on the CAM and tumor plugs of 3 × 10^6 HepG2 cells in 20 µL Matrigel (BD Biosciences) with reduced growth factors were placed inside the silicon ring. After 24 h at 38 °C in an incubator, the tumor plaques attached and connected to the (tumor-)feeding CAM microvasculature. Then, the tumor plaques were topically treated with either PBS (negative control) or PBS containing rising concentrations of 1b (0–10 µM), 1c (0–2.5 µM) or sorafenib (10 μM) for 3 days. Tumor growth and viability of the embryo were controlled daily by stereo microscopy. After 72 h of treatment, the tumors were recovered for weighing and pictures were taken using a stereomicroscope equipped with a Kappa digital camera system (Kappa Optronics GmbH, Germany). For data analysis, the tumor weight of 1c-treated and untreated control tumors was determined and the mean weight of treated vs. untreated tumors of 11 eggs for each condition was calculated. Statistical significance evaluated by one-way ANOVA tests.

COc1ccc(C=C(C#N)c2cccs2)cc1O [Compound 1c, 2-[1-Cyano-2-(3-hydroxy-4-methoxyphenyl)-(E)-ethenyl)]-thiophene]
number of the 43 kinase targets inhibited by more than 50% [1]: six | LDH release / unspecific cytotoxicity (in words) (HepG2 cells): do not exert considerable unspecific cytotoxicity | IC50 against AML-12 hepatocytes relative to hepatoma cells ([2]; AML-12 vs hepatoma cells (HepG2, Huh-7), 48 h): up to 10 fold | IC50 ([2]; Mus musculus, AML12, 48 h incubation, mean ± SD, read-out: Anti-proliferative activity IC50, AML-12): 1.81 ± 0.31 µM | IC50 (human Huh-7 HCC cells): 0.32 ± 0.15 µM | inhibition of FGFR (in words) (FGFR): no relevant inhibition | inhibition of PDGFR (in words) (PDGFR): no relevant inhibition | inhibition at 10 µM (VEGFR-1): 75% | inhibition at 10 µM (VEGFR-2 (KDR); 10 µM compound, cell-free): 89% | IC50 (VEGFR-2 (KDR); concentration range 0.003 to 30 µM, read-out: IC50 against VEGFR-2): 3.32 µM | inhibition at 10 µM (Pim-2): 60% | inhibition of EGFR (in words) (EGFR): no relevant inhibition | inhibition at 10 µM (CLK1): 69% | inhibition at 10 µM (c-KIT): 61% | inhibition of IGF-1R (in words) (IGF-1R): no relevant inhibition | inhibition at 10 µM (Pim-1): 71% | tumor weight after treatment (in words) ([3]; extracted tumors after 3 days of treatment, 1c 0–2.5 µM): significant mass reduction | tumor reduction vs PBS-treated controls (in words) ([3]; topical treatment 72 h, 1b 0–10 µM, 1c 0–2.5 µM, sorafenib 10 µM): pronounced tumor reductions | tolerability, mortality and development of chicken embryos ([3]; treated vs untreated eggs): well tolerated
